Activity calls are given as the source filed them.
How the values were obtained:
[1] = molecular target: ATP-dependent translocase ABCB1 (Homo sapiens, UniProt P08183); assay: inhibition of P-gp mediated JC-1 efflux – Jurkat-DNR cells, flow cytometry, dose response (AID 1689); format: functional
[2] = molecular target: Broad substrate specificity ATP-binding cassette transporter ABCG2 (Homo sapiens, UniProt Q9UNQ0); assay: blockers of JC-1 export by ABCG2 – Ig-MXP3 cells, flow cytometry, dose response (AID 1690); format: functional
[3] = molecular target: T1, Carboxy-terminal domain RNA polymerase II polypeptide A small phosphatase 1 (Homo sapiens, UniProt Q9GZU7); assay: CTDSP1 inhibitors, concentration-response, biochemical, absorbance readout, ultra-high-throughput screen actives (AID 540297); format: functional
T1 sequence (Q9GZU7 whole entry): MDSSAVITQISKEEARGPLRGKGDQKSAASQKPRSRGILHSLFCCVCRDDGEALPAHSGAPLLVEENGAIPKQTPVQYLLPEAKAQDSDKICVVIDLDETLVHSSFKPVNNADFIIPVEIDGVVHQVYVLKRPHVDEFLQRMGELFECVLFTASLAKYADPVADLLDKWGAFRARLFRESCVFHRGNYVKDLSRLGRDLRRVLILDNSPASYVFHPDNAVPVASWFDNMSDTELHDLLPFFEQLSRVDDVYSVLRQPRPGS

[4] = molecular target: T2, Low molecular weight phosphotyrosine protein phosphatase (Homo sapiens, UniProt P24666); format: functional; conditions: read-out: IC50_Mean
T2 sequence (P24666 whole entry): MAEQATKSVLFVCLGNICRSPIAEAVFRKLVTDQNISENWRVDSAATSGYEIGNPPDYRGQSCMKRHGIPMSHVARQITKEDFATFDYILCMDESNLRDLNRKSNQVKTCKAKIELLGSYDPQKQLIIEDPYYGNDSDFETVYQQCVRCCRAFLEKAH

[5] = molecular target: T2, Low molecular weight phosphotyrosine protein phosphatase; format: functional; conditions: read-out: IC50_Mean; remark: listed apart in the source
fMet-Leu-Phe receptor = fMet-Leu-Phe receptor (Homo sapiens, UniProt P21462); assay: formyl peptide receptor binders – dose response (AID 519); format: functional
Cytochrome P450 2C9 = Cytochrome P450 2C9 (Homo sapiens, UniProt P11712)
[6] = molecular target: Long-chain-fatty-acid--AMP ligase FadD28 (Mycobacterium tuberculosis, UniProt P9WQ59); assay: Fluorescence polarization aasay to screen for inhibitors that compete for the binding of FadD28 to a bisubstrate Measured in Biochemical System Using Plate Reader - 2147-01_Inhibitor_Dose_CherryPick_Activity.; format: functional, Mycobacterium tuberculosis H37Rv
Beta-lactamase [7] = molecular target: Beta-lactamase (Salmonella choleraesuis (strain SC-B67), UniProt Q5J463); assay: Epi-absorbance-based counterscreen for selective VIM-2 inhibitors: dose response biochemical high throughput screening assay to identify inhibitors of TEM-1 serine-beta-lactamase.
Beta-lactamase [8] = molecular target: T3, Beta-lactamase (Pseudomonas aeruginosa, UniProt Q79MP6); assay: inhibition of IMP-1 beta-lactamase activity – biochemical, epi-absorbance, selectivity assay for VIM-2 inhibitor project, dose response (AID 1920)
Beta-lactamase [9] = molecular target: T3, Beta-lactamase; assay: […] counterscreen for selective VIM-2 inhibitors: dose response biochemical high throughput screening assay to identify inhibitors of IMP-1 metallo-beta-lactamase.
[10] = molecular target: DNA dC->dU-editing enzyme APOBEC-3A (Homo sapiens, UniProt P31941); assay: A3A deaminase inhibition for selectivity – biochemical, dose response (AID 504722); format: functional
[11] = molecular target: DNA dC->dU-editing enzyme APOBEC-3G (Homo sapiens, UniProt Q9HC16); assay: Dose Response confirmation of small molecule APOBEC3G DNA Deaminase Inhibitors via a fluorescence-based single-stranded DNA deaminase assay. [Related pubchem assays (depositor defined):AID493012, AID493028]; format: functional
[12] = human cervical cancer cell viability loss – 24 h, plate reader, dry powder, cytotoxicity control, dose response (AID 686928); format: functional, cell-based; conditions: HeLa
[13] = molecular target: Matrix metalloproteinase-14 (Homo sapiens, UniProt P50281); assay: Dose Response confirmation of uHTS hits for a small molecule inhibitors of MT1-MMP activation in a fluorescence assay set 1.; format: functional
[14] = viability loss in HEK293T cells – cell-based, cherry-picks, cytotoxicity control for HIV Vif inhibitor project, dose response (AID 652208); format: functional
BHK-21 = assay: viability loss in BHK-21 cells – cell-based, plate reader, cherry-pick samples, cytotoxicity control, dose response (AID 687030); format: functional; conditions: Mesocricetus auratus
A549 = assay: viability loss in A549 cells – cell-based, plate reader, cherry-pick samples, cytotoxicity control, dose response (AID 687028); format: functional; conditions: Homo sapiens
Paired box protein Pax-8 = Paired box protein Pax-8 (Homo sapiens, UniProt Q06710); assay: PAX8 transcriptional activity inhibition in RMG-I – RMG-I cells, luciferase, cherry-pick, dose response (AID 687027); format: functional, cell-based;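 note: luciferase reporter driven by Pax8 target thyroperoxidase promoter measured by SteadyGlo luminescence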
[15] = A549 cell cytotoxicity, dose response, cytotoxicity control, plate reader, cherry-pick, antagonist series (AID 743412); format: functional, cell-based
[16] = toxicity toward HepG2 liver cells – cell-based, plate reader, cherry-pick, antagonist series, cytotoxicity control, dose response (AID 743416); format: functional
[17] = blockers of bursicon-stimulated LGR2 cAMP reporter – cell-based, HEK293, CRE-luciferase reporter, cherry pick, set 2, dose response (AID 743343); format: functional;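 note: transfected cells were stimulated with diluted bursicon conditioned medium after compound addition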
[18] = general cell-killing toxicity readout – plate reader, dry powder samples, cytotoxicity control for PAX8 inhibitor project, dose response (AID 743021); format: functional, cell-based
[19] = blockade of melanocortin 4 receptor signaling – cell-based, plate reader, cherry pick, counter-screen for LGR2 antagonist project, dose response (AID 743444); format: functional;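 note: transfected HEK 293 cells stimulated with alpha-MSH peptide; potency of inhibitors of the alpha-MSH evoked signal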
[20] = viability loss in HEK293 cells – cell-based, plate reader, cherry-picked samples, cytotoxicity control, dose response (AID 743446); format: functional
[21] = molecular target: T4, Methionyl-tRNA synthetase, putative (Trypanosoma brucei brucei, UniProt Q38C91); format: functional, Trypanosoma brucei brucei strain 927/4 GUTat10.1
[22] = Counterscreen for inhibitors of Trypanosoma brucei methionyl tRNA synthetase (MetRS): Luminescence-based cell-based high throughput dose response assay to identify compounds that are cytotoxic to Jurkat human T lymphocyte cells.; format: functional
[23] = molecular target: T4, Methionyl-tRNA synthetase, putative; format: functional, Trypanosoma brucei brucei strain 927/4 GUTat10.1; remark: listed apart in the source
[24] = activation of miR-122 Renilla sensor silencing – cell-based, Huh7 psiCHECK-miR122, Renilla luciferase, cherry-picked, dose response (AID 651956); format: functional;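 note: huh7 hepatoma cells stably carrying a psiCHECK-2 miR-122 sensor plasmid; renilla luciferase signal reporting endogenous miR-122 activity after 48 h compound exposure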
[25] = general mammalian cell viability loss – inhibitor set, cherry-pick, set 2, cytotoxicity control for miR-122 modulator project, dose response (AID 720697); format: functional, cell-based
[26] = general mammalian cell viability loss – activator set, cherry-pick, cytotoxicity control for miR-122 modulator project, dose response (AID 720690); format: functional, cell-based;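 note: HEK293T human cells scored for general mammalian cytotoxicity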
[27] = T. cruzi growth inhibition in host cells, dose response, cell-based, plate reader, dry powder, set 2 (AID 652275); format: functional
[28] = cytotoxicity in MITF-independent A375 cells – cell-based, CellTiter-Glo luminescence, dry powder, set 4, counter-screen for MITF inhibitor project, dose response (AID 624364); format: functional; conditions: A-375;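 note: A375 melanoma cells are MITF independent so this is a counter screen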
[29] = viability loss in MITF-independent A375 cells – cell-based, CellTiter-Glo luminescence, dry powder, set 2, counter-screen for MITF inhibitor project, dose response (AID 624489); format: functional; conditions: A-375;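 note: actives are compounds lowering A375 viability meaning general cytotoxicity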
[30] = molecular target: Kappa-type opioid receptor (Homo sapiens, UniProt P41145); assay: Late-stage fluorescence-based cell-based dose response assay for antagonists of kappa opioid receptor 1 (OPRK1).; format: functional
Mu-type opioid receptor = Mu-type opioid receptor (Homo sapiens, UniProt P35372); assay: Late-stage results from the probe development effort to identify antagonists of OPRK1: luminescence-based cell-based dose response OPRM1 counterscreen, Set 2.; format: functional
[31] = molecular target: Delta-type opioid receptor (Homo sapiens, UniProt P41143); assay: Late-stage results from the probe development effort to identify antagonists of OPRK1: fluorescence-based cell-based dose response OPRD1 counterscreen, Set 2.; format: functional
[32] = molecular target: Sphingosine 1-phosphate receptor 1 (Homo sapiens, UniProt P21453); assay: Late-stage counterscreen for antagonists of kappa opioid receptor 1 (OPRK1): fluorescence-based cell-based dose response assay to identify antagonists of Sphingosine 1-Phosphate Receptor 1 (S1P1).; format: functional
[33] = molecular target: C-X-C chemokine receptor type 4 (Homo sapiens, UniProt P61073); assay: SAR analysis of small molecule antagonists of the CXCR6 receptor using a CXCR4 receptor luminescent beta-arrestin counterscreen.; format: functional
[34] = molecular target: T5, C-C chemokine receptor type 6 (Homo sapiens, UniProt P51684); assay: SAR analysis of small molecule antagonists of the CXCR6 receptor using a CCR6 receptor luminescent beta-arrestin counterscreen.; format: functional
T5 sequence (P51684 whole entry): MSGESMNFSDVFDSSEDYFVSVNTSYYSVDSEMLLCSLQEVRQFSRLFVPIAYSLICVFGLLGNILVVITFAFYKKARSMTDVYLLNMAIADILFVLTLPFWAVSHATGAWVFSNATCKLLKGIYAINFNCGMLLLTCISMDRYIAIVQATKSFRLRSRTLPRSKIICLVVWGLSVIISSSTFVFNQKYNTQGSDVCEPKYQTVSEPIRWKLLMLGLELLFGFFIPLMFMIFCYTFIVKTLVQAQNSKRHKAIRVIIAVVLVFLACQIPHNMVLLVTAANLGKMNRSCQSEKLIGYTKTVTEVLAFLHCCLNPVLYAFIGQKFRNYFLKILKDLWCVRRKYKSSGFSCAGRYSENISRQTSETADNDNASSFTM

[35] = cervical cancer cell viability loss – HeLa, 24 h, plate reader, powder samples, set 3, cytotoxicity control, dose response (AID 651864); format: functional, cell-based
[36] = HeLa cell viability loss – 24 h, dry powder, set 2, cytotoxicity control, dose response (AID 651774); format: functional, cell-based
[37] = inhibitors of non-replicating M. tuberculosis, dose response, luciferase, dry powder (AID 651619); format: functional; conditions: Mycobacterium tuberculosis
[38] = inhibitors of non-replicating M. tuberculosis, dose response, luciferase, dry powder (AID 651620); format: functional; conditions: Mycobacterium tuberculosis
[39] = molecular target: Oxysterols receptor LXR-beta (Homo sapiens, UniProt P55055); format: functional, cell-based;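 note: agonist activity at LXR measured by a cell-based luminescence readout across a dose range, run as a counterscreen for daf-12 agonists; HEK293 cells with Gal4-LXR fusion and GAL4-driven luciferase reporter; potency for activation of Gal4-LXR reporter so compounds are agonists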
Kallikrein-7 = Kallikrein-7 (Homo sapiens, UniProt P49862); assay: Fluorescence Intensity-based biochemical primary high throughput dose response assay to identify activators of kallikrein-7 (K7) zymogen.
[40] = optical artefact potency, substrate without enzyme – biochemical, fluorescence intensity, triplicate, artefact control for kallikrein-7 zymogen activator project, dose response (AID 720493)

T3 sequence (Q79MP6 whole entry): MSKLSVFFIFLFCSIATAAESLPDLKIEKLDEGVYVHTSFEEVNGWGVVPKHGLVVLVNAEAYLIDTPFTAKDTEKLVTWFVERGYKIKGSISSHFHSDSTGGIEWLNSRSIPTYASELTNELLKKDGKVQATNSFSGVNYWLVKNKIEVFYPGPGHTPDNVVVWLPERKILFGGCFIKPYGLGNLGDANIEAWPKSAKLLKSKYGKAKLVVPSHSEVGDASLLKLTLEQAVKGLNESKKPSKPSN
T4 sequence (Q38C91 whole entry): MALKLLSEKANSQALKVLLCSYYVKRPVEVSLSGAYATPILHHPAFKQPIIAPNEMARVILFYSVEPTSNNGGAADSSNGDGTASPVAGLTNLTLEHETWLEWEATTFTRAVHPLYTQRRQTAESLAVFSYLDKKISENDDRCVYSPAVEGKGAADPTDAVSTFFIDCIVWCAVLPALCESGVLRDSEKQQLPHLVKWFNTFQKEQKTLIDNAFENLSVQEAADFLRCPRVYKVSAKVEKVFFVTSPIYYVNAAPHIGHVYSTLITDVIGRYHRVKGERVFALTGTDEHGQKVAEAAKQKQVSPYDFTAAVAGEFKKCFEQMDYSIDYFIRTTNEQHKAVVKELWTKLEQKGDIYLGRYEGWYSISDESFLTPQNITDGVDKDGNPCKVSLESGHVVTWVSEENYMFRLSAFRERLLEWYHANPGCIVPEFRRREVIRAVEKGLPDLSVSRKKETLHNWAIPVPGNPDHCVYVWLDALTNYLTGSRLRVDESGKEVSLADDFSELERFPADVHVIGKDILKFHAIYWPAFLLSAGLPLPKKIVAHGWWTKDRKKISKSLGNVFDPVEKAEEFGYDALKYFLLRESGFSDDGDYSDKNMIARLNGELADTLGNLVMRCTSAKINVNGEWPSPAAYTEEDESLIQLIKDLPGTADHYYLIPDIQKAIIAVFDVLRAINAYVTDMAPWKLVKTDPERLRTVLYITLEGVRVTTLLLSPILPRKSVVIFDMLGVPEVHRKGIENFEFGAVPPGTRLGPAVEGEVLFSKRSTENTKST
Chain of Long-chain-fatty-acid--AMP ligase FadD28 (P9WQ59 whole entry): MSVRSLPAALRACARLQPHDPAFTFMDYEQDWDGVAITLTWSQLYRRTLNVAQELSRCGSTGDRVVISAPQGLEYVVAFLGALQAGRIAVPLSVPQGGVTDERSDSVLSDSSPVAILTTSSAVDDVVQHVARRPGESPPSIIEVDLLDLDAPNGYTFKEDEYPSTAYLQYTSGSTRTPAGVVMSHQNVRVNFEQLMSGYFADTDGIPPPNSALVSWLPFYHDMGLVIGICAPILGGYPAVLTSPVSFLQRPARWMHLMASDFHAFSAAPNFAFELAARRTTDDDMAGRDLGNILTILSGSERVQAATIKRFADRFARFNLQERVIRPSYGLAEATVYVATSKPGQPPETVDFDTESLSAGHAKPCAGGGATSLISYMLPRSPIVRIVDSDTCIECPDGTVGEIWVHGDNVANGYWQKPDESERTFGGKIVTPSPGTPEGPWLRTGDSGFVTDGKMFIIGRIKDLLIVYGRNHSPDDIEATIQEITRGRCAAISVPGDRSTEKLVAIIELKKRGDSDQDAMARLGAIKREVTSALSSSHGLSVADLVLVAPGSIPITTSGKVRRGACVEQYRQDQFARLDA
Chain of Oxysterols receptor LXR-beta (P55055 whole entry, the tested form may be a part): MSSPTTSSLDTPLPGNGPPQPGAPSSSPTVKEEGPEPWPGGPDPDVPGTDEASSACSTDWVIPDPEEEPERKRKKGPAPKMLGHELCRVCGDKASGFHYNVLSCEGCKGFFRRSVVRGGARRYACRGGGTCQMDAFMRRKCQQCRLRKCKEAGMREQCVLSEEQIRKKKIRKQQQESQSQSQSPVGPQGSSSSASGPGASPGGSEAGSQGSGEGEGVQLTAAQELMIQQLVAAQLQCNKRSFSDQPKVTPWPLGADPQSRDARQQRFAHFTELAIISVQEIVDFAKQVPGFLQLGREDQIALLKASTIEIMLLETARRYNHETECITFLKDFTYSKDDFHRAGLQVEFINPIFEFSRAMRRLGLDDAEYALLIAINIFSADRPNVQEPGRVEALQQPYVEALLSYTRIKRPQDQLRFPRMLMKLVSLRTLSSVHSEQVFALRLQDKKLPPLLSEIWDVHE
Chain of Kappa-type opioid receptor (P41145 whole entry): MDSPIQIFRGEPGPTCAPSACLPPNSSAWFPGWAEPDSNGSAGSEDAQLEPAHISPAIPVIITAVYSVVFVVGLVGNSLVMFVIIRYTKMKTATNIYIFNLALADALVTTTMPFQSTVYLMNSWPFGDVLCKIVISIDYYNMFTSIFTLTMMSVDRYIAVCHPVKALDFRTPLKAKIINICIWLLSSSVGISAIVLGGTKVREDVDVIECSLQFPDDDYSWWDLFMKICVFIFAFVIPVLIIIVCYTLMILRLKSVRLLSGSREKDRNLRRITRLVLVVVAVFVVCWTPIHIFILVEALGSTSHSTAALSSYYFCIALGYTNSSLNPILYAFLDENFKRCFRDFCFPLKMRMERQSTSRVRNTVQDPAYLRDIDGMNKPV
Chain of Sphingosine 1-phosphate receptor 1 (P21453 whole entry): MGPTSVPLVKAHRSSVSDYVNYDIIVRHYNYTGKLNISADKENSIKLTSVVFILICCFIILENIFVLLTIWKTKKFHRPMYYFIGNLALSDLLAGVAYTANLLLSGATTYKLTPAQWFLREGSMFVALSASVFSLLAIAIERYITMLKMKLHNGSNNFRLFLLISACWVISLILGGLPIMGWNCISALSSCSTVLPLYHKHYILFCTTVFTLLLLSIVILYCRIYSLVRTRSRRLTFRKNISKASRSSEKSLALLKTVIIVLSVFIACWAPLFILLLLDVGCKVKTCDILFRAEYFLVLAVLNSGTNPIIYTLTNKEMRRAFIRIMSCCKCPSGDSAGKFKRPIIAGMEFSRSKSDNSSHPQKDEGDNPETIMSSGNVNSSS
Chain of Delta-type opioid receptor (P41143 whole entry): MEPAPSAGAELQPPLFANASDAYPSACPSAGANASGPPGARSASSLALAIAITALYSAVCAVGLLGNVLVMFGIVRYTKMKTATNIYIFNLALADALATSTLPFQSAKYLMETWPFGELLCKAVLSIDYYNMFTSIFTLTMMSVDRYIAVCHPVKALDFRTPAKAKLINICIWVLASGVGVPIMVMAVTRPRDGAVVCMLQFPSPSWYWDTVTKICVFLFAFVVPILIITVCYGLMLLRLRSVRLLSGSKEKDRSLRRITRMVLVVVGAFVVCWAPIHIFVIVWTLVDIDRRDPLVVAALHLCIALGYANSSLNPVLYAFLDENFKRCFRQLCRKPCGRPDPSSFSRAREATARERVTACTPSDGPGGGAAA
Chain of C-X-C chemokine receptor type 4 (P61073 whole entry): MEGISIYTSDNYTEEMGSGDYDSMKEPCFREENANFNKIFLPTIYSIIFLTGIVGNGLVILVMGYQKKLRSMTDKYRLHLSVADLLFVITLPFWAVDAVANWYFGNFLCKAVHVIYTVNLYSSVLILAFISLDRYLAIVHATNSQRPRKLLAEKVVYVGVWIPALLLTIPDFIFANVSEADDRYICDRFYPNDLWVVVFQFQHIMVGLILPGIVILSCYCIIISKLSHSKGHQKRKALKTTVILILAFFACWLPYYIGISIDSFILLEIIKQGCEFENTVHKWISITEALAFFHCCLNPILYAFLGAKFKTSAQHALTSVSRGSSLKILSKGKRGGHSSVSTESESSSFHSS
Chain of Kallikrein-7 (P49862 whole entry): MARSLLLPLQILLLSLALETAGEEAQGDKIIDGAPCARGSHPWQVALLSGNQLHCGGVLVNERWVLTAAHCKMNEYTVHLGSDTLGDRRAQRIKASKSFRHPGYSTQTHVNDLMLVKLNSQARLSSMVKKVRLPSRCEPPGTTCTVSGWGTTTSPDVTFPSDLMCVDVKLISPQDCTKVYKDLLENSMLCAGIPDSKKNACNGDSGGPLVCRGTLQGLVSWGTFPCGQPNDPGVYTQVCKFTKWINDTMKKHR
Chain of DNA dC->dU-editing enzyme APOBEC-3G (Q9HC16 whole entry): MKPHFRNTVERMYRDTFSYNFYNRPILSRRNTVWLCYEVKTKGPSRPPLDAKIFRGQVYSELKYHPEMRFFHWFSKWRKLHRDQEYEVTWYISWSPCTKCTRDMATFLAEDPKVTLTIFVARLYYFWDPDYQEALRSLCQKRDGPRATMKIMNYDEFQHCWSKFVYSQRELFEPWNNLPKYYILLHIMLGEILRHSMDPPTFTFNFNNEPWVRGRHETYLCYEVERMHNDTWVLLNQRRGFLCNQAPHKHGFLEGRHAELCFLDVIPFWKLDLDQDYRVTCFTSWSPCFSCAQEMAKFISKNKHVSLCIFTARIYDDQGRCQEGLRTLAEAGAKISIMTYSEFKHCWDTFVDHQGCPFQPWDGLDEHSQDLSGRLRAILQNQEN
Chain of Mu-type opioid receptor (P35372 whole entry): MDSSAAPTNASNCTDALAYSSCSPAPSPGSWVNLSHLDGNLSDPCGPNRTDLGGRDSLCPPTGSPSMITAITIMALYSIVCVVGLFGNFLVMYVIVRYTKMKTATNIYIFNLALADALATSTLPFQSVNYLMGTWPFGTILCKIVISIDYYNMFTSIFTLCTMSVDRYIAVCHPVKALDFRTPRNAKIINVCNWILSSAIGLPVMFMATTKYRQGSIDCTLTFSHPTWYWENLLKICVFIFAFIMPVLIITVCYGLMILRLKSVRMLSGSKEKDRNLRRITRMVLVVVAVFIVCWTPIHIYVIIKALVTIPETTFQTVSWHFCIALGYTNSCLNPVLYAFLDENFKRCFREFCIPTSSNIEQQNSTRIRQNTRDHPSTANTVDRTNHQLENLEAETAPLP
Chain of fMet-Leu-Phe receptor (P21462 whole entry): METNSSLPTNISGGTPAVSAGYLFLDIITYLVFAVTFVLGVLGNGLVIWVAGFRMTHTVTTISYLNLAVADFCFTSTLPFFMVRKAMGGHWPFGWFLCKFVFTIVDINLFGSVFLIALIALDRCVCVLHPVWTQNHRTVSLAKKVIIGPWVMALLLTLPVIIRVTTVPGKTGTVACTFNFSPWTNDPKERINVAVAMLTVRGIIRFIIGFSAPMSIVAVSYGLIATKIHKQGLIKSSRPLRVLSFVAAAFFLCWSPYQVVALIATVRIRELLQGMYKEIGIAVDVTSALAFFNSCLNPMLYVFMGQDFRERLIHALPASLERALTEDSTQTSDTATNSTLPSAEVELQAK

CN(C)c1ccc(P(=O)(Nc2cccc(C(F)(F)F)c2)N2CCOCC2)c(NC(=O)c2cccs2)c1 (configuration not stated)
EC50 [1]: 0.286 µM (active)
EC50 [2]: 1.21 µM (inactive)

Cc1cc2oc(C(=O)NCCc3ccc(S(N)(=O)=O)cc3)c(C)c2cc1C
IC50 [3]: > 80 µM (inactive)
IC50 [4]: 29.9 µM (inactive)
IC50 [5]: 48.1 µM (inactive)

Cc1ccc(C2C(C(=O)c3ccc(Cl)cc3)=C(O)C(=O)N2CC2CCCO2)o1 (configuration not stated)
Ki (fMet-Leu-Phe receptor): 11.6 µM (active)
AC50 (Cytochrome P450 2C9): 22.4 µM (inconclusive)

COc1ccc(OC)c(C2=NOC(C(=O)Nc3cccc(C(C)=O)c3)C2)c1 (configuration not stated)
AC50 [6]: 34.6 µM (active)

C=C(C)Cn1c(-c2cccs2)n[nH]c1=S
IC50 (Beta-lactamase [7]): > 59.6 µM (inactive)
IC50 (Beta-lactamase [8]): > 59.6 µM (inactive)
IC50 (Beta-lactamase [9]): > 59.6 µM (inactive)
IC50 [10]: > 100 µM (inactive)
IC50 [11]: 7.53 µM (active)

O=C(Nc1nnc(-c2ccc(Cl)cc2)o1)C1CCCCC1
AC50 [12]: > 160 µM (inactive)

Nc1ccc(NC(=O)c2ccccc2)c2c1C(=O)c1ccccc1C2=O
IC50 [13]: 19.5 µM (active)

COC(=O)N1C(=O)[C@](c2ccc(Cl)cc2)(C(C)C)N1C(=O)OC
AC50 [14]: 18.7 µM (active)

COc1cc(NC(=O)c2nccn2C)cc(C(=O)Nc2cccc(C(F)(F)F)c2)c1
AC50 (BHK-21): 26.2 µM (active)
AC50 (A549): 19.7 µM (active)

Nc1[nH]cnc2c(C3OC(CO)C(O)C3O)cnc1-2 (configuration not stated)
AC50 (Paired box protein Pax-8): < 0.26 µM (active)
AC50 [15]: < 0.05 µM (active)
AC50 [16]: 0.422 µM (active)
AC50 [17]: 0.407 µM (active)
AC50 [18]: 19.5 µM (active)
AC50 [19]: 0.539 µM (active)
AC50 [20]: 0.832 µM (active)

Cn1cc(S(=O)(=O)N2CCOCC2)cc1C(=O)NCc1ccc(Cl)cc1
IC50 [21]: 29.8 µM (inactive)
IC50 [22]: 83.3 µM (inactive)
IC50 [23]: 11.2 µM (inactive)

C[C@H](CO)N1C[C@H](C)[C@H](CN(C)Cc2ccc(C(F)(F)F)cc2)OCCCC[C@H](C)Oc2ccc(NC(=O)CCCN(C)C)cc2C1=O
AC50 [24]: 10.3 µM (active)
AC50 [25]: 17.9 µM (active)
AC50 [26]: 15.7 µM (active)

O=C(CN1CCOCC1)N1CCCCN2[C@@H](CO)[C@H](c3ccc(-c4ccccc4)cc3)[C@@H]2C1
AC50 [27]: 2.39 µM (active)

C=CCNC1=C(NS(=O)(=O)c2ccc(Br)cc2)C(=O)c2ccccc2C1=O
AC50 [28]: > 70 µM (inactive)
AC50 [29]: > 70 µM (inactive)

COc1ccccc1C1CCN(Cc2ccc3c(c2)CCC(C)(C)O3)CC1
IC50 [30]: 4.66 µM (active)
IC50 (Mu-type opioid receptor): 7.4 µM (active)
IC50 [31]: > 50 µM (inactive)
IC50 [32]: > 50 µM (inactive)

COc1ccc(CN2C3CCCC2CC(NC(=O)c2cc(OC)c(OC)c(OC)c2)C3)cc1 (configuration not stated)
IC50 [33]: 57.5 µM (inactive)
IC50 [34]: > 79 µM (inactive)

CCn1nnnc1NCc1ccc(C(C)C)cc1
AC50 [35]: 144 µM (active)
AC50 [36]: > 70 µM (inactive)

Fc1ccc(-c2nnc(SCc3cn(Cc4ccccc4)nn3)o2)cc1
IC90 [37]: 1 µM (active)
IC90 [38]: 1 µM (active)

Cc1ccsc1/C=N/NC(=O)c1sccc1C
EC50 [39]: > 67.5 µM (inactive)

COc1ccc(-c2coc3cc(O)c(OC)cc3c2=O)cc1 [CASTANIN]
EC50 (Kallikrein-7): 9 µM (active)
EC50 [40]: > 7.73 µM (active)

Source: ChEMBL document CHEMBL1201862, “PubChem BioAssay data set” (2004)
